What was measured:
Assay type in all cases: in vivo
Kochia (Kochia scoparia) [1] = assay: Test A preemergence; conditions: Bassia scoparia, pre-emergence, 240 h, Preemergence
Outline: (§1)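 Each rating is a visual injury score from 0 to 100 given about 10 d after treatment, judged against untreated controls kept alongside in the greenhouse. In loam soil–sand blend, seeds got a preemergence directed soil spray, while postemergence plants were 2 to 10 cm tall at spraying.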

[2] = system: barnyardgrass (Echinochloa crus-galli); assay: Test A preemergence; conditions: Echinochloa crus-galli, pre-emergence, 240 h, Preemergence
Outline: as §1

[3] = system: giant foxtail (Setaria faberii); assay: Test A preemergence; conditions: Setaria faberi, pre-emergence, 240 h, Preemergence
Outline: as §1

[4] = system: pigweed (Amaranthus retroflexus); assay: Test A preemergence; conditions: Amaranthus retroflexus, pre-emergence, 240 h, Preemergence
[5] = system: ragweed (common ragweed, Ambrosia elatior); assay: Test A preemergence; conditions: Ambrosia artemisiifolia, pre-emergence, 240 h, Preemergence
Outline: as §1

[6] = system: ryegrass, Italian (Italian ryegrass, Lolium multiflorum); assay: Test A preemergence; conditions: Lolium multiflorum, pre-emergence, 240 h, Preemergence
Outline: as §1

[7] = system: Galium (catchweed bedstraw, Galium aparine); assay: Test A postemergence; conditions: Galium, post-emergence, 240 h, Postemergence
Outline: as §1

Kochia (Kochia scoparia) [8] = assay: Test A postemergence; conditions: Bassia scoparia, post-emergence, 240 h, Postemergence
Outline: as §1

[9] = system: barnyardgrass (Echinochloa crus-galli); assay: Test A postemergence; conditions: Echinochloa crus-galli, post-emergence, 240 h, Postemergence
Outline: as §1

[10] = system: blackgrass (Alopecurus myosuroides); assay: Test A postemergence; conditions: Alopecurus myosuroides, post-emergence, 240 h, Postemergence
Outline: as §1

corn (Zea mays) = assay: Test A postemergence; conditions: Zea mays, post-emergence, 240 h, Postemergence
Outline: as §1

[11] = system: giant foxtail (Setaria faberii); assay: Test A postemergence; conditions: Setaria faberi, post-emergence, 240 h, Postemergence
Outline: as §1

[12] = system: pigweed (Amaranthus retroflexus); assay: Test A postemergence; conditions: Amaranthus retroflexus, post-emergence, 240 h, Postemergence
Outline: as §1

[13] = system: ragweed (common ragweed, Ambrosia elatior); assay: Test A postemergence; conditions: Ambrosia artemisiifolia, post-emergence, 240 h, Postemergence
Outline: as §1

[14] = system: ryegrass, Italian (Italian ryegrass, Lolium multiflorum); assay: Test A postemergence; conditions: Lolium multiflorum, post-emergence, 240 h, Postemergence
Outline: as §1

[15] = system: wheat (Triticum aestivum); assay: Test A postemergence; conditions: Triticum aestivum, post-emergence, 240 h, Postemergence
Outline: as §1

[16] = system: barnyardgrass (Echinochloa crus-galli); assay: Test B flooded paddy test; conditions: Echinochloa crus-galli, 360 h, Flood, 250 g ai/ha; visually evaluated after 13 to 15 d; read-out: Plant response rating, Barnyardgrass (0 to 100 scale where 0 is no effect and 100 is complete control)
Outline: (§2)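 Percent control, visually estimated after 13–15 d in the greenhouse on a 0–100 basis, compares treated pots with untreated ones; compound was put into paddy water 3 cm above the soil when plants had two leaves.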

[17] = system: ducksalad (Heteranthera limosa); assay: Test B flooded paddy test; conditions: Heteranthera limosa, 360 h, Flood, 250 g ai/ha; visually evaluated after 13 to 15 d; read-out: Plant response rating, Ducksalad (0 to 100 scale where 0 is no effect and 100 is complete control)
Outline: as §2

rice (Oryra sativa) = assay: Test B flooded paddy test; conditions: Oryza sativa, 360 h, Flood, 250 g ai/ha; visually evaluated after 13 to 15 d; read-out: Plant response rating, Rice (0 to 100 scale where 0 is no effect and 100 is complete control)
Outline: as §2

[18] = system: sedge, umbrella (small-flower umbrella sedge, Cyperus difformis); assay: Test B flooded paddy test; conditions: Cyperus difformis, 360 h, Flood, 250 g ai/ha; visually evaluated after 13 to 15 d; read-out: Plant response rating, Sedge, Umbrella (0 to 100 scale where 0 is no effect and 100 is complete control)
Outline: as §2

CN1C[C@H](c2ccc(C(F)(F)F)cc2)[C@@H](C(=O)Nc2cccnc2F)C1=O [Compound 1396]
pest or weed control at 31 g/ha (Kochia (Kochia scoparia) [1]; 31 g ai/ha, 0 to 100 scale where 0 is no effect and 100 is complete control, read-out: Kochia plant response rating): 30%
pest or weed control at 125 g/ha (Kochia (Kochia scoparia) [1]; 125 g ai/ha, 0 to 100 scale (0 no effect, 100 complete control), read-out: Plant response rating, Kochia): 70%
pest or weed control at 31 g/ha ([2]; 31 g ai/ha, 0 to 100 scale where 0 is no effect and 100 is complete control, read-out: Barnyardgrass plant response rating): 90%
pest or weed control at 125 g/ha ([2]; 125 g ai/ha, 0 to 100 scale (0 no effect, 100 complete control), read-out: Plant response rating, Barnyardgrass): 90%
pest or weed control at 31 g/ha ([3]; 31 g ai/ha, 0 to 100 scale where 0 is no effect and 100 is complete control, read-out: Foxtail, Giant plant response rating): 90%
pest or weed control at 125 g/ha ([3]; 125 g ai/ha, 0 to 100 scale (0 no effect, 100 complete control), read-out: Plant response rating, Foxtail, Giant): 90%
pest or weed control at 31 g/ha ([4]; 31 g ai/ha, 0 to 100 scale where 0 is no effect and 100 is complete control, read-out: Pigweed plant response rating): 70%
pest or weed control at 125 g/ha ([4]; 125 g ai/ha, 0 to 100 scale (0 no effect, 100 complete control), read-out: Plant response rating, Pigweed): 90%
pest or weed control at 31 g/ha ([5]; 31 g ai/ha, 0 to 100 scale where 0 is no effect and 100 is complete control, read-out: Ragweed plant response rating): 30%
pest or weed control at 125 g/ha ([5]; 125 g ai/ha, 0 to 100 scale (0 no effect, 100 complete control), read-out: Plant response rating, Ragweed): 60%
pest or weed control at 31 g/ha ([6]; 31 g ai/ha, 0 to 100 scale where 0 is no effect and 100 is complete control, read-out: Ryegrass, Italian plant response rating): 0%
pest or weed control at 125 g/ha ([6]; 125 g ai/ha, 0 to 100 scale (0 no effect, 100 complete control), read-out: Plant response rating, Ryegrass, Italian): 40%
pest or weed control at 31 g/ha ([7]; 31 g ai/ha, 0 is no effect, 100 is complete control, read-out: Galium plant response rating (0 to 100 scale)): 60%
pest or weed control at 125 g/ha ([7]; 125 g ai/ha, visual injury after approx. 10 d, 0 to 100 scale, 0 no effect, 100 complete control, read-out: Plant response rating, Galium): 70%
pest or weed control at 31 g/ha (Kochia (Kochia scoparia) [8]; 31 g ai/ha, 0 is no effect, 100 is complete control, read-out: Kochia plant response rating (0 to 100 scale)): 60%
pest or weed control at 125 g/ha (Kochia (Kochia scoparia) [8]; 125 g ai/ha, visual injury after approx. 10 d, 0 to 100 scale, 0 no effect, 100 complete control, read-out: Plant response rating, Kochia): 70%
pest or weed control at 31 g/ha ([9]; 31 g ai/ha, 0 is no effect, 100 is complete control, read-out: Barnyardgrass plant response rating (0 to 100 scale)): 70%
pest or weed control at 125 g/ha ([9]; 125 g ai/ha, visual injury after approx. 10 d, 0 to 100 scale, 0 no effect, 100 complete control, read-out: Plant response rating, Barnyardgrass): 80%
pest or weed control at 31 g/ha ([10]; 31 g ai/ha, 0 is no effect, 100 is complete control, read-out: Blackgrass plant response rating (0 to 100 scale)): 0%
pest or weed control at 125 g/ha ([10]; 125 g ai/ha, visual injury after approx. 10 d, 0 to 100 scale, 0 no effect, 100 complete control, read-out: Plant response rating, Blackgrass): 50%
plant injury at 31 g/ha (corn (Zea mays); 31 g ai/ha, 0 is no effect, 100 is complete control, read-out: Corn plant response rating (0 to 100 scale)): 20%
Corn plant response rating (crop injury, 0 = no effect, 100 = complete kill) at 125 g/ha (corn (Zea mays); 125 g ai/ha, visual injury after approx. 10 d, 0 to 100 scale, 0 no effect, 100 complete control): 60%
pest or weed control at 31 g/ha ([11]; 31 g ai/ha, 0 is no effect, 100 is complete control, read-out: Foxtail, Giant plant response rating (0 to 100 scale)): 80%
pest or weed control at 125 g/ha ([11]; 125 g ai/ha, visual injury after approx. 10 d, 0 to 100 scale, 0 no effect, 100 complete control, read-out: Plant response rating, Foxtail, Giant): 80%
pest or weed control at 31 g/ha ([12]; 31 g ai/ha, 0 is no effect, 100 is complete control, read-out: Pigweed plant response rating (0 to 100 scale)): 30%
pest or weed control at 125 g/ha ([12]; 125 g ai/ha, visual injury after approx. 10 d, 0 to 100 scale, 0 no effect, 100 complete control, read-out: Plant response rating, Pigweed): 70%
pest or weed control at 31 g/ha ([13]; 31 g ai/ha, 0 is no effect, 100 is complete control, read-out: Ragweed plant response rating (0 to 100 scale)): 0%
pest or weed control at 125 g/ha ([13]; 125 g ai/ha, visual injury after approx. 10 d, 0 to 100 scale, 0 no effect, 100 complete control, read-out: Plant response rating, Ragweed): 50%
pest or weed control at 31 g/ha ([14]; 31 g ai/ha, 0 is no effect, 100 is complete control, read-out: Ryegrass, Italian plant response rating (0 to 100 scale)): 20%
pest or weed control at 125 g/ha ([14]; 125 g ai/ha, visual injury after approx. 10 d, 0 to 100 scale, 0 no effect, 100 complete control, read-out: Plant response rating, Ryegrass, Italian): 40%
plant injury at 31 g/ha ([15]; 31 g ai/ha, 0 is no effect, 100 is complete control, read-out: Wheat plant response rating (0 to 100 scale)): 0%
plant injury at 125 g/ha ([15]; 125 g ai/ha, visual injury after approx. 10 d, 0 to 100 scale, 0 no effect, 100 complete control, read-out: Plant response rating, Wheat): 70%
pest or weed control at 250 g/ha [16]: 80%
pest or weed control at 250 g/ha [17]: 100%
pest or weed control at 250 g/ha (rice (Oryra sativa)): 25%
pest or weed control at 250 g/ha [18]: 0%
